Several values for one entry are separate records, joined by “and”; a condition that tells them apart may be missing. Identical values can stand only once.
Experiment: passive permeability, PAMPA, ADME assay (AID 1508612)
Details: pH 7.4, 30.0 min, 50.0 µM

Structure (SMILES) | Papp
Nc1ncc(S(=O)(=O)N2CCOCC2)s1 | 15.5 ×10⁻⁶ cm/s
COc1ccc(-c2ccc3c(N4CCOC[C@H]4C)nc(N4CCOC[C@H]4C)nc3n2)cc1CO | 182 ×10⁻⁶ cm/s
CC1Cc2cc(S(=O)(=O)NCc3ccc(N(C)C)cc3)ccc2N1C(=O)C1CCC1 (stereo not given) | > 1000 ×10⁻⁶ cm/s
Nc1c(C(=O)Nc2ccc(Cl)c(C(F)(F)F)c2)sc2nc3c(cc12)N1CCC3CC1 | > 1000 ×10⁻⁶ cm/s
CN(C)C(=O)c1cc(-c2ccc(S(C)(=O)=O)cc2)c2cnn(C)c2n1 | 22.6 ×10⁻⁶ cm/s
CC(C)c1cc(C(=O)N2CC[C@@H](NC(=O)C3CC3)C2)n[nH]1 | 1.3 ×10⁻⁶ cm/s
CCOC(=O)C1CCN(C(=O)Nc2ccc3c(c2)nc(C)n3C)CC1 | 38.4 ×10⁻⁶ cm/s
O=C(Nc1nc(-c2ccccc2)cs1)c1ccncc1NS(=O)(=O)c1ccccc1F | 468 ×10⁻⁶ cm/s
CCOC(=O)c1ccc(-n2cnc3cc(C(=O)N4CCCCC4)ccc32)cc1 | > 1000 ×10⁻⁶ cm/s
COc1cccc(CNc2ccc(S(=O)(=O)Nc3nc4ccccc4o3)cc2)c1O | 106 ×10⁻⁶ cm/s
Cc1ccc(S(=O)(=O)Nc2cnccc2C(=O)Nc2nc(-c3ccncc3)cs2)cc1 | 74.4 ×10⁻⁶ cm/s
COc1cccc(CNc2ccc(S(=O)(=O)Nc3cccc4ccccc34)cc2)c1O | < 1 ×10⁻⁶ cm/s
Fc1ccc(-c2ccc(Nc3nc(-c4ccncc4)nc4ccccc34)cc2F)c(F)c1 | 19.5 ×10⁻⁶ cm/s
Cc1cccc(-n2cnc3cc(C(=O)N4CCCC(C)C4)ccc32)c1 (stereo not given) | > 1000 ×10⁻⁶ cm/s
CN(C)CCN1C(=O)c2cccc3cc(N)cc(c23)C1=O | 339 ×10⁻⁶ cm/s
COCCCOc1ccnc(CS(=O)c2nc3ccccc3[nH]2)c1C (stereo not given) | 212 ×10⁻⁶ cm/s
CC1CCN(C(=O)c2ccc(-c3ccc(N4CCSCC4)nc3)cc2)CC1 | > 1000 ×10⁻⁶ cm/s
CC1CC(C)(C)N(C(=O)CN2C(=O)c3ccccc3C2=O)c2ccccc21 (stereo not given) | > 1000 ×10⁻⁶ cm/s
CC(=O)Nc1cc(-c2nc(Nc3ccc(F)c(F)c3)c3ccccc3n2)ccn1 | 438 ×10⁻⁶ cm/s
Cc1ccc2c(c1)[nH]c1c(N3CCN(Cc4ccccc4)CC3)ncnc12 | > 1000 ×10⁻⁶ cm/s
Cn1cnc2c(F)c(Nc3ccc(Br)cc3Cl)c(C(=O)NOCCO)cc21 | 131 ×10⁻⁶ cm/s
CCOc1ccc(C(C)CNC(=O)c2cc3sccc3n2Cc2ccccc2)cc1OCC (stereo not given) | > 1000 ×10⁻⁶ cm/s
CCOc1ccc(C2c3c(oc4ccc(C)cc4c3=O)C(=O)N2CCCN(C)C)cc1 (stereo not given) | 516 ×10⁻⁶ cm/s
CCOC(=O)C1CCN(C(=O)C2(NC(=O)Nc3ccccc3Cl)CCCC2)CC1 | 229 ×10⁻⁶ cm/s
Cc1ccnc(NC(=S)N2CCN(c3ccc(Cl)c(Cl)c3)CC2)c1 | > 1000 ×10⁻⁶ cm/s
COc1ccc(Nc2cc3c(nc2OC)nc(CCc2ccccc2)n3C)cn1 | > 1000 ×10⁻⁶ cm/s
O=[S+]([O-])(Nc1nccs1)c1ccc(NCc2cc(Cl)cc(Br)c2O)cc1 | 265 ×10⁻⁶ cm/s

Structure (SMILES) | Papp
COC[C@@H]1CN(C(=O)c2nn(C)c3ccccc23)C[C@H]1c1nc(C)no1 | 165 ×10⁻⁶ cm/s
CNC(=O)c1cc(Oc2ccc(NC(=O)Nc3ccc(Cl)c(C(F)(F)F)c3)c(F)c2)ccn1 | < 1 ×10⁻⁶ cm/s
Clc1ccc(C2=Nn3c(nnc3-c3ccncc3)SC2)cc1 | 372 ×10⁻⁶ cm/s
O=C(NCCCCc1ccccc1)C1CCN(c2nc(-c3ccc(Br)cc3)cs2)CC1 | 5.3 ×10⁻⁶ cm/s
CCC[C@@H]1CN(C(=O)c2ccc(-c3ccc(C)o3)cc2)C[C@H]1NC(C)=O | > 1000 ×10⁻⁶ cm/s
COc1ccc(-n2nc(C3CCN([S+](=O)([O-])c4c(C)noc4C)CC3)[nH]c2=O)cc1 | 403 ×10⁻⁶ cm/s
CC(=O)Nc1ncc(S(=O)(=O)Nc2cnccc2C(=O)Nc2nc(-c3ccccc3)cs2)s1 | 21.4 ×10⁻⁶ cm/s
COc1ccc(-c2ccc3nc(-c4cc(C)cc(C)c4)oc3c2)c(OC)c1OC | < 1 ×10⁻⁶ cm/s
O=[S+]([O-])(Nc1ccccc1)c1ccc(NCc2cccc(C(F)(F)F)c2F)cc1 | 306 ×10⁻⁶ cm/s
Cc1cnc(-c2ccccc2OC(C)C)nc1NCc1ccc(-n2ccnn2)cc1 | > 1000 ×10⁻⁶ cm/s
O=C(Cc1ccc(-c2csc(Nc3ccc(F)cc3)n2)s1)N1CCOCC1 | > 1000 ×10⁻⁶ cm/s
CC(=O)Nc1nc(-c2ccc3c(c2)CCN3C(=O)c2ccccc2C)c(C)s1 | > 1000 ×10⁻⁶ cm/s
Cc1ccc(S(=O)(=O)Nc2cnccc2C(=O)Nc2ccc(S(=O)(=O)Nc3nccs3)cc2)cc1 | < 1 ×10⁻⁶ cm/s
O=C1Nc2ccc(C(=O)c3ccco3)cc2/C1=C/c1cc(Cl)c(O)c(Cl)c1 | 41.1 ×10⁻⁶ cm/s
Cc1cccc(-n2cnc3cc(C(=O)N4CCCCCC4)ccc32)c1 | > 1000 ×10⁻⁶ cm/s
Cc1noc(C)c1S(=O)(=O)Nc1cnccc1C(=O)Nc1nc(-c2ccccc2)cs1 | 339 ×10⁻⁶ cm/s
COCCCNC(=O)c1cc2cc(S(=O)(=O)N(C)C)ccc2n1C | 77.2 ×10⁻⁶ cm/s
Oc1ccc(C(=S)N2CCN(c3cccc(Cl)c3)CC2)cc1 | 677 ×10⁻⁶ cm/s
N[C@@H](Cc1cc(Br)c(O)c(Br)c1)C(=O)O | 3.64 ×10⁻⁶ cm/s
CCOC(=O)c1cc(-c2ccco2)nc2c1c(C)nn2CCC#N | 989 ×10⁻⁶ cm/s
O=c1c(O)c(-c2ccc(O)cc2)oc2cc(O)cc(O)c12 | 46.6 ×10⁻⁶ cm/s
CCN1C(=O)c2ccccc2[S@](=O)c2ccc(C(=O)NCc3ccc(C#N)cc3)cc21 | 872 ×10⁻⁶ cm/s
Clc1ccccc1-c1nc(NCc2ccc(-c3cccnc3)cc2)c2ccccc2n1 | 944 ×10⁻⁶ cm/s
Cn1cc(Nc2cnccc2C(=O)O)c2cccnc21 | 3.2 ×10⁻⁶ cm/s
COC[C@@H]1CN(C(=O)c2n[nH]c3ccccc23)C[C@H]1c1nc(C)no1 | 66.8 ×10⁻⁶ cm/s
Cc1csc2nc(-c3cccc(NC(=O)c4ccccc4Cl)c3)cn12 | 651 ×10⁻⁶ cm/s
CC(=O)c1c(C)[nH]c(C(=O)Nc2cccc(S(=O)(=O)N3CCCCCC3)c2)c1C | > 1000 ×10⁻⁶ cm/s

Structure (SMILES) | Papp
COc1cc(-c2cc3c(nc2-c2ccccc2)nc(C(=O)NC2CCN(C)CC2)n3C)ccn1 | > 1000 ×10⁻⁶ cm/s
COc1cc(/C=C2\C(=O)Nc3ccccc32)ccc1O | > 1000 ×10⁻⁶ cm/s
Nc1nc2c(s1)C(c1ccccc1OCc1ccccc1Cl)CC(=O)N2 (stereo not given) | 509 ×10⁻⁶ cm/s
CCn1c(C)c(C(C)=O)c(C)c1C(=O)Nc1cccc([S+](=O)([O-])N(C)C)c1 | 405 ×10⁻⁶ cm/s
CC(C)CN(CC(=O)N(CCCN1CCCC1=O)CC(N)=O)C(=O)CNCCc1ccccc1F | 11.6 ×10⁻⁶ cm/s
c1ccc2[nH]c(Nc3nc(-c4ccncc4)nc4ccccc34)nc2c1 | > 1000 ×10⁻⁶ cm/s
Nc1c(C(=O)N2CCCCC2)sc(=S)n1-c1ccccc1 | > 1000 ×10⁻⁶ cm/s
COCCn1ccc2c(C3=CCOCC3)nc(-c3cccc(NC(C)=O)c3)cc21 | 464 ×10⁻⁶ cm/s
Cc1ccc(-c2csc(N3CCC(C(N)=O)CC3)n2)cc1 | 711 ×10⁻⁶ cm/s
Cc1cc(NS(=O)(=O)c2ccc(NC(=O)Cc3ccc(Cl)c(Cl)c3)cc2)no1 | 30.2 ×10⁻⁶ cm/s
COc1ccc(-n2nc(C3CCCN(C(=O)Cc4ccc(F)cc4)C3)[nH]c2=O)cc1 (stereo not given) | 851 ×10⁻⁶ cm/s
CC(C=CC(=O)NO)=C[C@@H](C)C(=O)c1ccc(N(C)C)cc1 | 335 ×10⁻⁶ cm/s
O=C1CN(C(=O)CCC(=O)N2CCc3c(nc4cc(-c5ccccc5)[nH]n4c3=O)C2)c2ccccc2N1 | < 1 ×10⁻⁶ cm/s
O=[N+]([O-])c1ccc(CNc2ccc([S+](=O)([O-])Nc3nccs3)cc2)c(O)c1 | 1.2 ×10⁻⁶ cm/s
Fc1cccc(F)c1Nc1nc(-c2ccncc2)nc2ccccc12 | > 1000 ×10⁻⁶ cm/s
Cn1c(C(=O)NCCc2ccccn2)nc2nc(-c3ccccc3)c(Cl)cc21 | > 1000 ×10⁻⁶ cm/s
CN(C)c1cccc(-c2c3c(=O)n(-c4ccccc4Cl)[nH]c3cc(=O)n2C)c1 | 13.9 ×10⁻⁶ cm/s
NC(=O)C1CCN(c2nc(-c3ccc4c(c3)OCCO4)cs2)CC1 | 669 ×10⁻⁶ cm/s
Cc1nn2c(c1-c1ccccc1OCc1ccccc1)N(C(=O)Cc1ccc3c(c1)OCO3)CCC2 | > 1000 ×10⁻⁶ cm/s
COc1ccc(-c2nc3ccc(C4=NNC(=O)CC4C)cc3[nH]2)cc1 (stereo not given) | 228 ×10⁻⁶ cm/s
CN(C)c1cccc(-c2nccc(N3CCC(C(N)=O)CC3)n2)c1 | 287 ×10⁻⁶ cm/s
Cc1nc2ccc(Nc3nc(-c4ccncc4)nc4ccccc34)cc2s1 | 55.8 ×10⁻⁶ cm/s
Cc1cccc(-c2csc(N3CCC(C(N)=O)CC3)n2)c1 | 475 ×10⁻⁶ cm/s
CN=C1CN=C(c2ccc[nH]2)c2cc(Cl)ccc2N1 | 354 ×10⁻⁶ cm/s and > 1000 ×10⁻⁶ cm/s
COc1cccc(NC(=O)c2cccc3c(=O)c4c([nH]c23)CCCC4)c1 | > 1000 ×10⁻⁶ cm/s
Cc1ccc(C)c(NC2=C(c3ccc(C(F)(F)F)cc3)C(=O)c3ccccc32)c1 | < 1 ×10⁻⁶ cm/s
Cc1cc(C)nc(NC(=S)N2CCN(c3cc(C(F)(F)F)nc4ccccc34)CC2)c1 | > 1000 ×10⁻⁶ cm/s

Structure (SMILES) | Papp
C[C@H]1[C@@H](CCC(=O)Nc2ccc(F)cc2)O[C@@H]2O[C@]3(C)CC[C@@H]4[C@H](C)CC[C@@H]1[C@@]24OO3 | > 1000 ×10⁻⁶ cm/s
CC(=O)NC1CCN(c2nc(-c3ccc(Br)cc3)cs2)CC1 | 789 ×10⁻⁶ cm/s
CC1=C(C(=O)Nc2nncs2)C(c2[nH]ncc2Cl)N=C(Nc2nc3ccccc3o2)N1 (stereo not given) | 37 ×10⁻⁶ cm/s
NC(=O)C1CCN(c2nccc(-c3ccc4c(c3)OCCO4)n2)CC1 | 289 ×10⁻⁶ cm/s
O=C(Nc1ccccc1F)c1nc(S(=O)(=O)Cc2ccccc2F)ncc1Cl | 891 ×10⁻⁶ cm/s
CCC(CC)c1cc([C@H]2CN3CC[C@H]2C[C@@H]3CNS(=O)(=O)c2cccs2)nc(-c2ccncc2)n1 | > 1000 ×10⁻⁶ cm/s
COc1cccc(CNCCSc2nnnn2C)c1OCc1ccc(Cl)cc1Cl | > 1000 ×10⁻⁶ cm/s
Cc1ccc(S(=O)(=O)Nc2ccccc2C(=O)Nc2nccs2)cc1 | 478 ×10⁻⁶ cm/s
CCOC(=O)N1CCc2c(sc(NCc3ccc(N(C)C)cc3)c2C(=O)Nc2ccc(OC)cc2)C1 | 58.5 ×10⁻⁶ cm/s
COc1ccc(NC(=O)c2[nH]c(C)c(C(C)=O)c2C)cc1S(=O)(=O)N1CCCCC1 | 757 ×10⁻⁶ cm/s
N#Cc1ccc(-c2csc(N3CCC(C(N)=O)CC3)n2)cc1 | 406 ×10⁻⁶ cm/s
COc1ccc(-n2nc(C3CCCN(C(=O)Nc4ccccc4)C3)[nH]c2=O)cc1 (stereo not given) | 360 ×10⁻⁶ cm/s
Cc1ccc(-c2cc(C(=O)Nc3ccc(-c4nn[nH]n4)cc3)c3ccccc3n2)cc1C | 4.23 ×10⁻⁶ cm/s
O=C(Nc1ccc(Cl)c(S(=O)(=O)N2CCOCC2)c1)c1ccccc1 | 728 ×10⁻⁶ cm/s
Cc1ccc(C(=O)NC2CCN(c3cnn(CC4CC4)c(=O)c3)CC2)cc1C | 473 ×10⁻⁶ cm/s
CCN(CC)S(=O)(=O)c1ccc(N2CCOCC2)c(NC(=O)c2[nH]c(C)c(C(C)=O)c2C)c1 | > 1000 ×10⁻⁶ cm/s
CCOc1ccc(-c2cn3c(n2)sc2cc(C(=O)NCCCN(CC)CC)ccc23)cc1 | > 1000 ×10⁻⁶ cm/s
CC(=O)c1c(C)oc2ccc(N(C(=O)Oc3ccccc3)S(=O)(=O)c3ccccc3)cc12 | > 1000 ×10⁻⁶ cm/s
Fc1ccc(-c2nc(-c3ccncc3)nc3ccccc23)cc1F | > 1000 ×10⁻⁶ cm/s
C#Cc1ccc(NC(=O)c2cnn3c(C)cc(C)nc23)cc1 | 14 ×10⁻⁶ cm/s
CC1(C)CC(=O)C2=C(C1)NC(Nc1nc3ccccc3o1)=NC2c1ccccc1Cl (stereo not given) | > 1000 ×10⁻⁶ cm/s
COc1ccc(NC(=O)C2=C(C)NC(Nc3nc4ccccc4o3)=NC2c2ccccc2Br)cc1 (stereo not given) | 371 ×10⁻⁶ cm/s
NC(=O)C1CCN(c2nc(-c3ccc4c(c3)OCO4)cs2)CC1 | 740 ×10⁻⁶ cm/s
Cc1nc(-c2ccccc2)cc([C@H]2CN3CC[C@H]2C[C@@H]3CNC2CCOCC2)n1 | 369 ×10⁻⁶ cm/s

Reference: PubChem BioAssay AID1508612
